Test system: humans having risk factors for atherosclerosis
Experiment: Example 4: double-blinded, randomized comparative study of treating elevated cholesterol levels
Format: in vivo, human
Settings: at eight weeks, versus baseline
Experimental: A comparative study is executed to determine the effects of methods of treating elevated cholesterol levels comprising administration of each of: Test Sample 1, simvastatin (20 mg) in conjunction with fruit juice; Test Sample 2, simvastatin (10 mg) in conjunction with fruit juice; and Test Sample 3, simvastatin (10 mg) in conjunction with psyllium (15 grams) and fruit juice.
The study is a double-blinded, randomized comparison. Sixty humans, aging from about 30 to about 80 years, are utilized for the study, all of which are determined as having risk factors for atherosclerosis. The humans are randomized to three treatment groups (Treatment Group 1, Treatment Group 2, and Treatment Group 3). Each human stops any lipid-lowering treatment, and baseline lipid levels are obtained.
Treatment Group 1 receives Test Sample 1; Treatment Group 2 receives Test Sample 2; and Treatment Group 3 receives Test Sample 3; all over an eight week period. Test Sample 1 is administered as a concurrent administration once daily. Test Sample 2 is administered as a concurrent administration once daily. For Test Sample 3, 15 grams of psyllium is divided over three daily doses, each with fruit juice, wherein the last administered dose per day is concurrently administered with the simvastatin.
At eight weeks, levels of LDL-cholesterol, total cholesterol, and triglycerides are measured. Triglycerides are found not to be influenced based upon treatment group. However, on average, LDL-cholesterol and total cholesterol is decreased by approximately 29% in Treatment Group 1, LDL-cholesterol and total cholesterol is decreased by approximately 33% in Treatment Group 2, and LDL-cholesterol and total cholesterol is decreased by approximately 38% in Treatment Group 3.

| SMILES | LDL-cholesterol decreased, on average | total cholesterol decreased, on average |
| --- | --- | --- |
| CCC(C)(C)C(=O)O[C@H]1C[C@@H](C)C=C2C=C[C@H](C)[C@H](CC[C@@H]3C[C@@H](O)CC(=O)O3)[C@H]21 [Test Sample 1, simvastatin] | approximately 29% | approximately 29% |
| CCC(C)(C)C(=O)O[C@H]1C[C@@H](C)C=C2C=C[C@H](C)[C@H](CC[C@@H]3C[C@@H](O)CC(=O)O3)[C@H]21 [Test Sample 2, simvastatin] | approximately 33% | approximately 33% |

From US20120282359A1, “Compositions, Kits, and Methods for the Treatment of Conditions Associated with Elevated Cholesterol Levels” (priority 2003, published 2012)
